Test results reported in patent US8217048B2, “Inhibitors of serine proteases, particularly HCV NS3-NS4A protease” (Vertex Pharmaceuticals Incorporated, priority 2003, dated 2012).
pIC50, pKi: −log10 of the molar value.

What was measured:
HCV NS3-NS4A protease = molecular target: T1, HCV NS3-NS4A protease (Hepatitis C virus genotype 1a, UniProt P27958); assay: HCV Ki Assay (enzyme, Example 5); format: biochemical; settings: Ki values, tested according to Example 5 (enzyme); 5AB substrate, tNS3 with KK4A
T1 construct: The buffer, KK4A, DTT, and tNS3 were combined
T1 sequence (P27958 1658-1711): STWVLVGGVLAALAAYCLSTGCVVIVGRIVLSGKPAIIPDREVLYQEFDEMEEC
T1 sequence (P27958 1027-1208): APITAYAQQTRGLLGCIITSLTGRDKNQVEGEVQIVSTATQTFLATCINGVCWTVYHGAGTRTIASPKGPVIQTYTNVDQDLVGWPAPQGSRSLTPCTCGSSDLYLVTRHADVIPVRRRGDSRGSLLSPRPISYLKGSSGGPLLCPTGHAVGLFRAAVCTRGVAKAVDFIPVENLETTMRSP
Procedure: HPLC Microbore Method for Separation of 5AB Substrate and Products
NH2-Glu-Asp-Val-Val-(alpha)Abu-Cys-Ser-Met-Ser-Tyr-COOH
A stock solution of 20 mM 5AB (or concentration of your choice) was made in DMSO w/0.2M DTT. This was stored in aliquots at −20 C.
Buffer: 50 mM HEPES, pH 7.8; 20% glycerol; 100 mM NaCl
Total assay volume was 100 μL
The buffer, KK4A, DTT, and tNS3 were combined; distributed 78 μL each into wells of 96 well plate. This was incubated at 30 C for ˜5-10 min.
2.5 μL of appropriate concentration of test compound was dissolved in DMSO (DMSO only for control) and added to each well. This was incubated at room temperature for 15 min.
Initiated reaction by addition of 20 μL of 250 μM 5AB substrate (25 μM concentration is equivalent or slightly lower than the Km for 5AB).
Incubated for 20 min at 30 C.
Terminated reaction by addition of 25 μL of 10% TFA
Transferred 120 μL aliquots to HPLC vials
Separated SMSY product from substrate and KK4A by the following method:
Microbore Separation Method:
Instrumentation: Agilent 1100
Column thermostated chamber G1316A
Diode array detector G1315A
Solvent A=HPLC grade water+0.1% TFA
Solvent B=HPLC grade acetonitrile+0.1% TFA
Stop time: 17 min Post-run time: 10 min.

[1] = system: Cells containing hepatitis C virus (HCV) replicon; assay: HCV Replicon Cell Assay (Example 4); format: cell-based; settings: 48 h, tested according to Example 4 (cell), 50% inhibition of HCV RNA level, 48-hour incubation
Procedure: HCV Replicon Cell Assay Protocol
Cells containing hepatitis C virus (HCV) replicon were maintained in DMEM containing 10% fetal bovine serum (FBS), 0.25 mg per ml of G418, with appropriate supplements (media A).
On day 1, replicon cell monolayer was treated with a trypsin:EDTA mixture, removed, and then media A was diluted into a final concentration of 100,000 cells per ml wit. 10,000 cells in 100 ul were plated into each well of a 96-well tissue culture plate, and cultured overnight in a tissue culture incubator at 37° C.
On day 2, compounds (in 100% DMSO) were serially diluted into DMEM containing 2% FBS, 0.5% DMSO, with appropriate supplements (media B). The final concentration of DMSO was maintained at 0.5% throughout the dilution series.
Media on the replicon cell monolayer was removed, and then media B containing various concentrations of compounds was added. Media B without any compound was added to other wells as no compound controls.
Cells were incubated with compound or 0.5% DMSO in media B for 48 hours in a tissue culture incubator at 37° C. At the end of the 48-hour incubation, the media was removed, and the replicon cell monolayer was washed once with PBS and stored at −80° C. prior to RNA extraction.
Culture plates with treated replicon cell monolayers were thawed, and a fixed amount of another RNA virus, such as Bovine Viral Diarrhea Virus (BVDV) was added to cells in each well, RNA extraction reagents (such as reagents from RNeasy kits) were added to the cells immediately to avoid degradation of RNA. Total RNA was extracted according the instruction of manufacturer with modification to improve extraction efficiency and consistency. Finally, total cellular RNA, including HCV replicon RNA, was eluted and stored at −80° C. until further processing.
A Taqman real-time RT-PCR quantification assay was set up with two sets of specific primers and probe. One was for HCV and the other was for BVDV. Total RNA extractants from treated HCV replicon cells was added to the PCR reactions for quantification of both HCV and BVDV RNA in the same PCR well. Experimental failure was flagged and rejected based on the level of BVDV RNA in each well. The level of HCV RNA in each well was calculated according to a standard curve run in the same PCR plate. The percentage of inhibition or decrease of HCV RNA level due to compound treatment was calculated using the DMSO or no compound control as 0% of inhibition. The IC50 (concentration at which 50% inhibition of HCV RNA level is observed) was calculated from the titration curve of any given compound.

Compound | pKi (HCV NS3-NS4A protease) | pIC50 [1]
CCCC(NC(=O)C1CC(Oc2cccc(Cl)c2Cl)CN1C(=O)C(NC(=O)C(NC(=O)c1cnccn1)C1CCCCC1)C(C)(C)C)C(=O)C(=O)NC1CC1 (centres unmarked) [Compound 5] | 6.52 to 7.00 | 6.00 to 6.30
CCC[C@H](NC(=O)[C@@H]1C[C@@H](Oc2cccc(C(=O)OC)c2)CN1C(=O)[C@@H](NC(=O)[C@@H](NC(=O)c1cnccn1)C1CCCCC1)C(C)(C)C)C(=O)C(=O)NC1CC1 [Compound 45] | > 7.00 | > 6.30
CCC[C@H](NC(=O)[C@@H]1C[C@@H](Oc2ccc([N+](=O)[O-])cn2)CN1C(=O)[C@@H](NC(=O)[C@@H](NC(=O)c1cnccn1)C1CCCCC1)C(C)(C)C)C(=O)C(=O)NC1CC1 [Compound 26] | 6.52 to 7.00 | > 6.30
CCC[C@H](NC(=O)[C@@H]1C[C@@H](Oc2cc(OC)cc(OC)c2)CN1C(=O)[C@@H](NC(=O)[C@@H](NC(=O)c1cnccn1)C1CCCCC1)C(C)(C)C)C(=O)C(=O)NC1CC1 [Compound 24] | > 7.00 | > 6.30
CCC[C@H](NC(=O)[C@@H]1C[C@@H](Oc2ccc(CC#N)cc2)CN1C(=O)[C@@H](NC(=O)[C@@H](NC(=O)c1cnccn1)C1CCCCC1)C(C)(C)C)C(=O)C(=O)NC1CC1 [Compound 65] | 6.52 to 7.00 | > 6.30
CCC[C@H](NC(=O)[C@@H]1C[C@@H](Oc2ccncn2)CN1C(=O)[C@@H](NC(=O)[C@@H](NC(=O)c1cnccn1)C1CCCCC1)C(C)(C)C)C(=O)C(=O)NC1CC1 [Compound 50] | 6.52 to 7.00 | > 6.30
CCC[C@H](NC(=O)C1C[C@@H](Oc2ccc(Cl)cc2Cl)CN1C(=O)[C@@H](NC(=O)[C@@H](NC(=O)c1cnccn1)C1CCCCC1)C(C)(C)C)C(=O)C(=O)NC1CC1 (some centres unmarked) [Compound 2] | 6.52 to 7.00 | 6.00 to 6.30
CCC[C@H](NC(=O)[C@@H]1C[C@@H](Oc2ccccc2Cl)CN1C(=O)[C@@H](NC(=O)[C@@H](NC(=O)c1cnccn1)C1CCCCC1)C(C)(C)C)C(=O)C(=O)NC1CC1 [Compound 20] | > 7.00 | 6.00 to 6.30
CCC[C@H](NC(=O)[C@@H]1C[C@@H](Oc2ccc(C(=O)N3CCNCC3)cc2)CN1C(=O)[C@@H](NC(=O)[C@@H](NC(=O)c1cnccn1)C1CCCCC1)C(C)(C)C)C(=O)C(=O)NC1CC1 [Compound 71] | 6.52 to 7.00 | < 6.00
CCC[C@H](NC(=O)C1C[C@@H](Oc2cc(Cl)ccc2Cl)CN1C(=O)[C@@H](NC(=O)[C@@H](NC(=O)c1cnccn1)C1CCCCC1)C(C)(C)C)C(=O)C(=O)NC1CC1 (some centres unmarked) [Compound 3] | 6.52 to 7.00 | 6.00 to 6.30
